Results taken from patent publication US6841563B1, “Aryloxy propanolamines for improving livestock production” (Eli Lilly and Company, priority 1999, dated 2005).
Marks after values point to notes of the source that are not given here.

Key:
[1] = Weight gain, feed efficiency and carcass characteristics, last 14 days of growing period in broiler chickens; format: in vivo
Description: Approximately 1500 Peterson-Hubbard, day-old, male chicks were used in a randomized, complete-block design with 4 treatments (Control, Clenbuterol at 1 PPM, and Compound 6 at 3 and 15 PPM (mg/kg feed)). The testing facility contained 36 pens, divided equally into 6 blocks. Treatments were randomly allotted to pens within each block. Each treatment consisted of 6 pens with 10 birds per pen.
Day-of-age birds were obtained from Pine Manor Hatchery in Goshen, Ind. Approximately 40 birds per pen were set at random upon receipt. On day 30 of the growout period, all birds were weighed and the 15 birds closest to the block mean were selected. These birds were allowed to acclimate until day 35 of age. On that day, all remaining birds were weighed again, and the 10 birds/pen closest to the block mean were chosen for the treatment phase. Birds were provided ad libitum access to feed and water throughout the trial. All birds were fed a 23% crude protein corn-soy ration from day 1 until day 18 of age. The feed was changed to a 20% crude protein corn-soy ration from day 18 to day 49. The treatment feed was mixed using the same 20% crude protein basal ration. Treatments were administered in the feed from day 35 through day 49. Feed consumption was calculated over the entire 14-day treatment period. Birds were weighed at trial completion (day 49), and transported to Purdue University, West Lafayette, Ind. 47907, U.S.A. meat laboratory for slaughter and carcass measurements on day 50. Weights of the hot carcass, fat pad, and viscera were taken on all animals.

[2] = Intravenous administration to cattle: serum non-esterified fatty acid (NEFA) and serum urea nitrogen (SUN) levels; format: in vivo; settings: for ΔNEFA 24 Hours / change in vivo at 0.04 mg/kg: 40 μg per kilogram i.v. twice; for ΔNEFA 24 Hours: T+24 h minus T=0; for ΔNEFA 24 Hours / ΔNEFA 15 Min. / change in vivo at 0.04 mg/kg: mean of five animals; for ΔNEFA 15 Min.: 40 μg per kilogram i.v., T+15 min minus T=0; for change in vivo at 0.04 mg/kg: Bos taurus, iv, 24 hours post treatment vs baseline T=0, read-out: Δ% SUN 24 Hours; for lipolytic effects (non-esterified fatty acid levels): fifteen minutes and twenty-four hours after administration; for anabolic effects (change in serum urea nitrogen levels): twenty-four hours after administration, compared with the corresponding carboxamide regioisomers
Description: Intravenous administration of the compounds of the present invention to cattle increases serum non-esterified fatty acids and decreases serum urea. In this Example, angus/angus cross calves, both heifers and steers, weighing approximately 282 pounds (128 kg) initially to 788 pounds (357.8 kg) over the course of these studies, were placed in pens at 5 calves per pen. The cattle were acclimated to the pens for at least 1 week prior to initiating the study.
Calves were fed ad libitum twice daily, (approximately 6-15 pounds (2.7-6.8 kg)/day). During the treatment day, in the A.M. period, the feeding times were staggered to ensure that all animals were fed approximately one hour before the treatments were administered. During the P.M. treatment period, the cattle were fed immediately after receiving the P.M. injection.
After taking a pretreatment (T=O) blood sample from each animal, a 40 μg per kilogram dose of a test compound was administered intravenously in the jugular vein at 6:30 A.M. and 2:30 P.M. Each test compound was administered at a concentration of 1.00-1.25 mg/ml in a treatment vehicle that was a 50/50 mixture of polyethylene glycol 200/water.
A blood sample was taken at fifteen minutes post-treatment (T+15 min). The calves were returned to their respective pens until their next treatment, approximately eight hours later. The next morning at 6:30 A.M. a blood sample was collected from all calves at 24 hours post-treatment (T+24 h). All blood samples were analyzed for the non-esterified fatty acid level (NEFA) and serum urea nitrogen level (SUN). The post-treatment NEFA and SUN levels in each individual animal were compared with the levels found before treatment.

Structure (SMILES) | ΔNEFA 24 Hours [2] | ΔNEFA 15 Min. [2] | change in vivo at 0.04 mg/kg [2] | also measured
CC(C)(C)NCC(O)c1cc(Cl)c(N)c(Cl)c1 (stereo not drawn) [Clenbuterol, reference compound] |  |  |  | Dressing Percentage ([1]; 1 PPM in feed, day 35-49): 72.77**; Fat Pad Weight ([1]; 1 PPM in feed, day 35-49): 26.86 g; Final Weight ([1]; 1 PPM in feed, day 35-49): 3.02 kg; Hot Carcass Weights ([1]; 1 PPM in feed, day 35-49): 2191.64** g; Pen Feed Intake ([1]; 1 PPM in feed, day 35-49): 25.20 kg; Total 14 day Weight Gain ([1]; 1 PPM in feed, day 35-49): 1.29 kg; Viscera Weight ([1]; 1 PPM in feed, day 35-49): 285.45 g; Feed Efficiency F/G ([1]; 1 PPM in feed, day 35-49, pen feed intake/total pen weight): 1.99; increase in weight gain over control ([1]; 1 PPM, 14-day treatment period, P=0.1430): 2.38%; improvement of feed efficiency versus control ([1]; 1 PPM, 14-day treatment period, P=0.7320): 0.50%; increase in hot carcass weights compared to control ([1]; 1 PPM, P=0.0027): 3.25%; decrease in viscera weights with respect to control ([1]; 1 PPM, P=0.7215): 0.66%
CC(C)(Cc1ccc(Oc2ccc(C(N)=O)cn2)cc1)NC[C@H](O)COc1cccc2[nH]ncc12 [Compound 1] | 820.9 µmol/L | 554.4 µmol/L | -28.7% | 
CC(C)(Cc1ccc(Oc2ncccc2C(N)=O)cc1)NC[C@H](O)COc1cccc2[nH]ncc12 [Compound 2] | 742.4 µmol/L | 141.2 µmol/L | -39.3% | lipolytic effects (non-esterified fatty acid levels) [2]: modest lipolytic effects; anabolic effects (change in serum urea nitrogen levels) [2]: significantly greater
CC(C)(Cc1ccc(Oc2ccc(C(N)=O)cn2)cc1)NC[C@H](O)COc1cccc2[nH]c(=S)[nH]c12 [Compound 3] | 200.2 µmol/L | 379.4 µmol/L | -38.2% | 
CC(C)(Cc1ccc(Oc2ncccc2C(N)=O)cc1)NC[C@H](O)COc1cccc2[nH]c(=S)[nH]c12 [Compound 4] | 265.3 µmol/L | 283.1 µmol/L | -57% | lipolytic effects (non-esterified fatty acid levels) [2]: modest lipolytic effects; anabolic effects (change in serum urea nitrogen levels) [2]: significantly greater
CC(C)(Cc1ccc(Oc2ccc(C(N)=O)cn2)cc1)NC[C@H](O)COc1cccc2[nH]ccc12 [Compound 5] | -5.6 µmol/L | 170.8 µmol/L | -28.6% | 
CC(C)(Cc1ccc(Oc2ccc(C(N)=O)cn2)cc1)NC[C@H](O)COc1cccc2[nH]c(=O)[nH]c12 [Compound 7] | -4.2 µmol/L | 134.1 µmol/L | -9.7% | 
CC(C)(Cc1ccc(Oc2ncccc2C(N)=O)cc1)NC[C@H](O)COc1cccc2[nH]c(=O)[nH]c12 [Compound 8] | 35.6 µmol/L | 321.4 µmol/L | -14.2% | lipolytic effects (non-esterified fatty acid levels) [2]: modest lipolytic effects; anabolic effects (change in serum urea nitrogen levels) [2]: significantly greater
CC(C)(Cc1ccc(Oc2ccccc2C(N)=O)cc1)NC[C@H](O)COc1cccc2[nH]ccc12 [Compound 9] | -15.4 µmol/L | 99 µmol/L | -37% | 
CC(C)(Cc1ccc(Oc2cccc(Cl)c2C(N)=O)cc1)NC[C@H](O)COc1cccc2[nH]ccc12 [Compound 10] | -72.7 µmol/L | 52.7 µmol/L | -20.7% | 
CC(C)(Cc1ccc(Oc2ccc(Cl)cc2C(N)=O)cc1)NC[C@H](O)COc1cccc2[nH]ccc12 [Compound 11] | -14.1 µmol/L | 94 µmol/L | -39.4% | 
Cc1c[nH]c2cccc(OC[C@@H](O)CNC(C)(C)Cc3ccc(Oc4ncccc4C(N)=O)cc3)c12 [Compound 12] | -63.7 µmol/L | 332.6 µmol/L | -30.1% | 
CC(C)(Cc1ccc(Oc2cccc(Cl)c2C(N)=O)cc1)NC[C@H](O)COc1cccc2[nH]c(C#N)cc12 [Compound 13] | 32.1 µmol/L | 118.1 µmol/L | -36.7% | 
